ChEMBL document CHEMBL1201862, “PubChem BioAssay data set” (2004)
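A five-concentration, 48-hour dose response in 96-well plates underlies each endpoint, interpolated linearly between surrounding concentrations. Here, GI50 denotes the concentration required for 50% inhibition of growth.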 The source made the active and inactive calls. Cut-off read from the data, not from the text of the source: active = GI50 up to about 1.1 µM and inactive = higher.

Experiments:
Assay in all cases: growth of human tumour cells (NCI), 48 h
[1] = test system: SF-268
[2] = test system: SK-MEL-2
[3] = test system: IGROV-1
[4] = test system: SNB-75
[5] = test system: SK-MEL-28
[6] = test system: T47D
[7] = test system: A498
[8] = test system: SF-539
[9] = test system: SW-620
[10] = test system: PC-3
[11] = test system: Malme-3M
[12] = test system: LOX IMVI
[13] = test system: UACC-257
[14] = test system: OVCAR-4
[15] = test system: MCF7
[16] = test system: SN12C
[17] = test system: UACC-62
[18] = test system: K562
[19] = test system: HOP-62
[20] = test system: DU-145

Q: For `C[C@]1(O)CC[C@H]2[C@@H]3CCc4cc(O)ccc4[C@H]3CC[C@@]21C`, which GI50 [1] is on record?
A: 3.46 µM (inactive)

Q: What about the GI50 [2] of the same molecule?
A: 0.773 µM (active)

Q: What about the GI50 [3] of the same molecule?
A: 0.735 µM (active)

Q: What about the GI50 [4] of the same molecule?
A: > 100 µM (inactive)

Q: And the GI50 [5]?
A: 34.8 µM (inactive)

Q: What about the GI50 [6] of the same molecule?
A: 38.5 µM (inactive)

Q: What about the GI50 [7] of the same molecule?
A: 0.456 µM (active)

Q: And the GI50 [8]?
A: 0.356 µM (active)

Q: And the GI50 [9]?
A: 0.568 µM (active)

Q: What about the GI50 [10] of the same molecule?
A: 1.87 µM (inactive)

Q: And the GI50 [11]?
A: 0.353 µM (active)

Q: What about the GI50 [12] of the same molecule?
A: 14.5 µM (inactive)

Q: And the GI50 [13]?
A: 28.2 µM (inactive)

Q: What about the GI50 [14] of the same molecule?
A: > 100 µM (inactive)

Q: What about the GI50 [15] of the same molecule?
A: 0.665 µM (active)

Q: Which GI50 [1] does the source give for `CCC(=O)NC(Nc1ccc(O)cc1)(C(F)(F)F)C(F)(F)F` here?
A: > 100 µM (inactive)

Q: What about the GI50 [2] of the same molecule?
A: 41.6 µM (inactive)

Q: What about the GI50 [16] of the same molecule?
A: > 100 µM (inactive)

Q: And the GI50 [4]?
A: > 100 µM (inactive)

Q: And the GI50 [5]?
A: > 100 µM (inactive)

Q: What about the GI50 [17] of the same molecule?
A: 40.1 µM (inactive)

Q: And the GI50 [18]?
A: 33.1 µM (inactive)

Q: What about the GI50 [6] of the same molecule?
A: 49.4 µM (inactive)

Q: What about the GI50 [7] of the same molecule?
A: > 100 µM (inactive)

Q: And the GI50 [19]?
A: > 100 µM (inactive)

Q: And the GI50 [20]?
A: > 100 µM (inactive)

Q: And the GI50 [8]?
A: 96.4 µM (inactive)

Q: What about the GI50 [11] of the same molecule?
A: 42.2 µM (inactive)

Q: And the GI50 [12]?
A: 33.6 µM (inactive)

Q: What about the GI50 [13] of the same molecule?
A: 37.4 µM (inactive)

Q: And the GI50 [15]?
A: 46.3 µM (inactive)

Q: For `CC(=O)NC1(NC(C)=O)C2CC(C1Cc1ccccc1)C(C)(C)C2C` (stereo not given), which GI50 [1] is on record?
A: > 100 µM (inactive)

Q: What about the GI50 [3] of the same molecule?
A: > 100 µM (inactive)

Q: And the GI50 [16]?
A: > 100 µM (inactive)

Q: What about the GI50 [4] of the same molecule?
A: > 100 µM (inactive)

Q: And the GI50 [5]?
A: > 100 µM (inactive)

Q: And the GI50 [17]?
A: > 100 µM (inactive)

Q: And the GI50 [18]?
A: > 100 µM (inactive)

Q: And the GI50 [6]?
A: > 100 µM (inactive)

Q: What about the GI50 [7] of the same molecule?
A: > 100 µM (inactive)

Q: And the GI50 [19]?
A: > 100 µM (inactive)

Q: And the GI50 [20]?
A: > 100 µM (inactive)

Q: What about the GI50 [8] of the same molecule?
A: > 100 µM (inactive)

Q: What about the GI50 [9] of the same molecule?
A: > 100 µM (inactive)

Q: And the GI50 [10]?
A: > 100 µM (inactive)

Q: What about the GI50 [11] of the same molecule?
A: > 100 µM (inactive)

Q: What about the GI50 [13] of the same molecule?
A: > 100 µM (inactive)

Q: And the GI50 [14]?
A: > 100 µM (inactive)

Q: What about the GI50 [15] of the same molecule?
A: > 100 µM (inactive)

Q: Which GI50 [1] does the source give for `CC1(C)C=[N+]([O-])C(C)(C)N1O` here?
A: > 10 µM (inactive)

Q: And the GI50 [2]?
A: > 10 µM (inactive)

Q: And the GI50 [16]?
A: > 10 µM (inactive)

Q: What about the GI50 [18] of the same molecule?
A: > 10 µM (inactive)

Q: What about the GI50 [6] of the same molecule?
A: > 10 µM (inactive)

Q: What about the GI50 [19] of the same molecule?
A: > 10 µM (inactive)

Q: What about the GI50 [20] of the same molecule?
A: > 10 µM (inactive)

Q: What about the GI50 [9] of the same molecule?
A: > 10 µM (inactive)

Q: What about the GI50 [10] of the same molecule?
A: > 10 µM (inactive)

Q: What about the GI50 [11] of the same molecule?
A: > 10 µM (inactive)

Q: And the GI50 [13]?
A: > 10 µM (inactive)

Q: What about the GI50 [14] of the same molecule?
A: > 10 µM (inactive)

Q: And the GI50 [15]?
A: > 10 µM (inactive)

Q: Which results are given for `CCn1c(=O)c2c3ccc(O)cc3[nH]c2c2ccc(O)cc21`?
A: GI50 [1]: > 100 µM (inactive); GI50 [3]: > 100 µM (inactive); GI50 [16]: 81.5 µM (inactive); GI50 [4]: 66.2 µM (inactive); GI50 [5]: > 100 µM (inactive); GI50 [17]: 57 µM (inactive); GI50 [18]: 83.6 µM (inactive); GI50 [6]: 51.2 µM (inactive); GI50 [7]: > 100 µM (inactive); GI50 [19]: > 100 µM (inactive); GI50 [20]: > 100 µM (inactive); GI50 [8]: > 100 µM (inactive); GI50 [9]: > 100 µM (inactive); GI50 [10]: > 100 µM (inactive); GI50 [11]: 95.9 µM (inactive); GI50 [13]: > 100 µM (inactive); GI50 [14]: > 100 µM (inactive); GI50 [15]: 50.7 µM (inactive)

Q: How did the GI50 [1] turn out when `CC1C2CC(C(S(=O)(=O)N3CCOCC3)/C2=N\O)C1(C)C` (stereo not given) was run?
A: > 100 µM (inactive)

Q: What about the GI50 [3] of the same molecule?
A: > 100 µM (inactive)

Q: What about the GI50 [16] of the same molecule?
A: > 100 µM (inactive)

Q: What about the GI50 [4] of the same molecule?
A: > 100 µM (inactive)

Q: And the GI50 [5]?
A: > 100 µM (inactive)

Q: What about the GI50 [17] of the same molecule?
A: > 100 µM (inactive)

Q: And the GI50 [18]?
A: > 100 µM (inactive)

Q: And the GI50 [6]?
A: > 100 µM (inactive)

Q: And the GI50 [7]?
A: > 100 µM (inactive)

Q: And the GI50 [19]?
A: > 100 µM (inactive)

Q: And the GI50 [20]?
A: > 100 µM (inactive)

Q: And the GI50 [8]?
A: > 100 µM (inactive)

Q: And the GI50 [9]?
A: > 100 µM (inactive)

Q: What about the GI50 [10] of the same molecule?
A: > 100 µM (inactive)

Q: What about the GI50 [11] of the same molecule?
A: > 100 µM (inactive)

Q: What about the GI50 [12] of the same molecule?
A: > 100 µM (inactive)

Q: And the GI50 [13]?
A: > 100 µM (inactive)

Q: What about the GI50 [14] of the same molecule?
A: > 100 µM (inactive)

Q: And the GI50 [15]?
A: > 100 µM (inactive)

Q: For `COC(=O)c1ccc(/C=C2\Cc3ccccc3C2=O)cc1`, which GI50 [1] is on record?
A: > 100 µM (inactive)

Q: And the GI50 [16]?
A: > 100 µM (inactive)

Q: What about the GI50 [4] of the same molecule?
A: > 100 µM (inactive)

Q: And the GI50 [5]?
A: > 100 µM (inactive)

Q: And the GI50 [17]?
A: > 100 µM (inactive)

Q: And the GI50 [18]?
A: > 100 µM (inactive)

Q: And the GI50 [6]?
A: > 100 µM (inactive)

Q: And the GI50 [19]?
A: > 100 µM (inactive)

Q: And the GI50 [20]?
A: > 100 µM (inactive)

Q: What about the GI50 [8] of the same molecule?
A: > 100 µM (inactive)

Q: What about the GI50 [9] of the same molecule?
A: > 100 µM (inactive)

Q: What about the GI50 [10] of the same molecule?
A: > 100 µM (inactive)

Q: What about the GI50 [13] of the same molecule?
A: > 100 µM (inactive)

Q: And the GI50 [14]?
A: > 100 µM (inactive)

Q: What about the GI50 [15] of the same molecule?
A: > 100 µM (inactive)

Q: How did the GI50 [1] turn out when `CO/N=C(/C)c1cccc(Nc2nc3ccc(Cl)cc3c3[nH]c4ccccc4c23)c1` was run?
A: 13 µM (inactive)

Q: And the GI50 [2]?
A: 13.2 µM (inactive)

Q: And the GI50 [3]?
A: 10.6 µM (inactive)

Q: And the GI50 [16]?
A: 11 µM (inactive)

Q: What about the GI50 [17] of the same molecule?
A: 6.59 µM (inactive)

Q: And the GI50 [18]?
A: 3.13 µM (inactive)

Q: And the GI50 [6]?
A: 2.47 µM (inactive)

Q: And the GI50 [7]?
A: 4.29 µM (inactive)

Q: And the GI50 [19]?
A: 11.7 µM (inactive)

Q: What about the GI50 [20] of the same molecule?
A: 12.2 µM (inactive)

Q: And the GI50 [8]?
A: 15.6 µM (inactive)

Q: And the GI50 [9]?
A: 6.08 µM (inactive)

Q: What about the GI50 [10] of the same molecule?
A: 14 µM (inactive)

Q: And the GI50 [12]?
A: 11.2 µM (inactive)

Q: And the GI50 [13]?
A: 14.5 µM (inactive)

Q: What about the GI50 [15] of the same molecule?
A: 10.3 µM (inactive)
